# Assay results: the supplement of paper PMC4862054
# System: MFM-223
# Experiment: normalised response (% of control), CellTiter-Glo; higher = more viable cells (100 = DMSO, 0 = benzethonium chloride kill control)
# Settings: incubation time: 72 h
# Method: (§1)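 DSRT, 72 h incubation, CellTox Green / CellTiter-Glo readout. Signal is normalised to DMSO and benzethonium chloride controls. Value is the normalised response at dose 3.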
row,SMILES,normalised response
1,O=C(CCCCCCC(=O)Nc1ccccc1)NO [Vorinostat] (100 nM),97.8%

# System: MDA-MB-468
# Experiment: as above
# Settings: incubation time: 72 h
# Method: as §1
row,SMILES,normalised response
1,Cc1cc(Nc2nc(N[C@@H](C)c3ncc(F)cn3)ncc2Cl)[nH]n1 [AZD1480] (10 nM),104%
2,CC1(COc2ccc3c(c2)ncn3-c2ccc3cccc(N4CCC(N)CC4)c3n2)COC1 [Crenolanib] (100 nM),107%
3,Cn1cc(C2=C(c3cn(C4CCN(Cc5ccccn5)CC4)c4ccccc34)C(=O)NC2=O)c2ccccc21 [Enzastaurin] (100 nM),96.9%
4,Nc1ccn([C@@H]2O[C@H](CO)[C@@H](O)C2(F)F)c(=O)n1 [Gemcitabine] (10 nM),52.2%
5,C=CCn1c(=O)c2cnc(Nc3ccc(N4CCN(C)CC4)cc3)nc2n1-c1cccc(C(C)(C)O)n1 [MK1775] (100 nM),89.2%
6,CO[C@@H]1[C@H](N(C)C(=O)c2ccccc2)C[C@H]2O[C@]1(C)n1c3ccccc3c3c4c(c5c6ccccc6n2c5c31)C(=O)NC4 [Midostaurin] (100 nM),92.4%
7,CCNC(=O)c1noc(-c2cc(C(C)C)c(O)cc2O)c1-c1ccc(CN2CCOCC2)cc1 [NVP-AUY922] (10 nM),32.4%
8,O=[N+]([O-])c1ccc2c(c1)S(=O)(=O)C=C2 [Stattic] (500 nM),45.6%
9,O=C(CCCCCCC(=O)Nc1ccccc1)NO [Vorinostat] (100 nM),110%

# System: Hs578T
# Experiment: normalised response (% of control), CellTox Green; higher = less cell death (100 = DMSO, 0 = benzethonium chloride kill control)
# Settings: incubation time: 72 h
# Summary of the method: (§2)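 A 20 µl suspension of breast cancer cells was seeded into each well of 384-well plates containing compound at 5 concentrations in 10-fold steps over a compound-specific 10,000-fold range. After 72 h incubation, CellTox Green fluorescence (485/520 nm) was read first, and CellTiter-Glo luminescence was read after 10 min at room temperature. Each plate was normalised against 0.1 % DMSO (100) and a positive kill control (0), and each value is the normalised signal at one concentration.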
row,SMILES,normalised response
1,Cc1cc(Nc2nc(N[C@@H](C)c3ncc(F)cn3)ncc2Cl)[nH]n1 [AZD1480] (10 nM),109%
2,CC1(COc2ccc3c(c2)ncn3-c2ccc3cccc(N4CCC(N)CC4)c3n2)COC1 [Crenolanib] (100 nM),107%
3,Cn1cc(C2=C(c3cn(C4CCN(Cc5ccccn5)CC4)c4ccccc34)C(=O)NC2=O)c2ccccc21 [Enzastaurin] (100 nM),111%
4,Nc1ccn([C@@H]2O[C@H](CO)[C@@H](O)C2(F)F)c(=O)n1 [Gemcitabine] (10 nM),102%
5,C=CCn1c(=O)c2cnc(Nc3ccc(N4CCN(C)CC4)cc3)nc2n1-c1cccc(C(C)(C)O)n1 [MK1775] (100 nM),66.1%
6,CO[C@@H]1[C@H](N(C)C(=O)c2ccccc2)C[C@H]2O[C@]1(C)n1c3ccccc3c3c4c(c5c6ccccc6n2c5c31)C(=O)NC4 [Midostaurin] (100 nM),67%
7,CCNC(=O)c1noc(-c2cc(C(C)C)c(O)cc2O)c1-c1ccc(CN2CCOCC2)cc1 [NVP-AUY922] (10 nM),105%
8,O=[N+]([O-])c1ccc2c(c1)S(=O)(=O)C=C2 [Stattic] (500 nM),89.2%
9,O=C(CCCCCCC(=O)Nc1ccccc1)NO [Vorinostat] (100 nM),108%

# System: HCC1599
# Experiment: as above
# Settings: incubation time: 72 h
# Summary of the method: as §2
row,SMILES,normalised response
1,Cc1cc(Nc2nc(N[C@@H](C)c3ncc(F)cn3)ncc2Cl)[nH]n1 [AZD1480] (10 nM),99.4%
2,CC1(COc2ccc3c(c2)ncn3-c2ccc3cccc(N4CCC(N)CC4)c3n2)COC1 [Crenolanib] (100 nM),99.3%
3,Cn1cc(C2=C(c3cn(C4CCN(Cc5ccccn5)CC4)c4ccccc34)C(=O)NC2=O)c2ccccc21 [Enzastaurin] (100 nM),115%
4,Nc1ccn([C@@H]2O[C@H](CO)[C@@H](O)C2(F)F)c(=O)n1 [Gemcitabine] (10 nM),100%
5,C=CCn1c(=O)c2cnc(Nc3ccc(N4CCN(C)CC4)cc3)nc2n1-c1cccc(C(C)(C)O)n1 [MK1775] (100 nM),90%
6,CO[C@@H]1[C@H](N(C)C(=O)c2ccccc2)C[C@H]2O[C@]1(C)n1c3ccccc3c3c4c(c5c6ccccc6n2c5c31)C(=O)NC4 [Midostaurin] (100 nM),94.5%
7,CCNC(=O)c1noc(-c2cc(C(C)C)c(O)cc2O)c1-c1ccc(CN2CCOCC2)cc1 [NVP-AUY922] (10 nM),112%
8,O=[N+]([O-])c1ccc2c(c1)S(=O)(=O)C=C2 [Stattic] (500 nM),95.4%
9,O=C(CCCCCCC(=O)Nc1ccccc1)NO [Vorinostat] (100 nM),95.5%

# System: MDA-MB-231
# Experiment: as above
# Settings: incubation time: 72 h
# Summary of the method: as §2
row,SMILES,normalised response
1,Cc1cc(Nc2nc(N[C@@H](C)c3ncc(F)cn3)ncc2Cl)[nH]n1 [AZD1480] (10 nM),95.6%
2,CC1(COc2ccc3c(c2)ncn3-c2ccc3cccc(N4CCC(N)CC4)c3n2)COC1 [Crenolanib] (100 nM),120%
3,Cn1cc(C2=C(c3cn(C4CCN(Cc5ccccn5)CC4)c4ccccc34)C(=O)NC2=O)c2ccccc21 [Enzastaurin] (100 nM),102%
4,Nc1ccn([C@@H]2O[C@H](CO)[C@@H](O)C2(F)F)c(=O)n1 [Gemcitabine] (10 nM),97.9%
5,C=CCn1c(=O)c2cnc(Nc3ccc(N4CCN(C)CC4)cc3)nc2n1-c1cccc(C(C)(C)O)n1 [MK1775] (100 nM),70.8%
6,CO[C@@H]1[C@H](N(C)C(=O)c2ccccc2)C[C@H]2O[C@]1(C)n1c3ccccc3c3c4c(c5c6ccccc6n2c5c31)C(=O)NC4 [Midostaurin] (100 nM),91.2%
7,O=[N+]([O-])c1ccc2c(c1)S(=O)(=O)C=C2 [Stattic] (500 nM),107%
8,O=C(CCCCCCC(=O)Nc1ccccc1)NO [Vorinostat] (100 nM),92.3%

# System: CAL-85-1
# Experiment: as above
# Settings: incubation time: 72 h
# Summary of the method: as §2
row,SMILES,normalised response
1,Cc1cc(Nc2nc(N[C@@H](C)c3ncc(F)cn3)ncc2Cl)[nH]n1 [AZD1480] (10 nM),108%
2,CC1(COc2ccc3c(c2)ncn3-c2ccc3cccc(N4CCC(N)CC4)c3n2)COC1 [Crenolanib] (100 nM),104%
3,Cn1cc(C2=C(c3cn(C4CCN(Cc5ccccn5)CC4)c4ccccc34)C(=O)NC2=O)c2ccccc21 [Enzastaurin] (100 nM),99.2%
4,Nc1ccn([C@@H]2O[C@H](CO)[C@@H](O)C2(F)F)c(=O)n1 [Gemcitabine] (10 nM),85%
5,C=CCn1c(=O)c2cnc(Nc3ccc(N4CCN(C)CC4)cc3)nc2n1-c1cccc(C(C)(C)O)n1 [MK1775] (100 nM),77.2%
6,CO[C@@H]1[C@H](N(C)C(=O)c2ccccc2)C[C@H]2O[C@]1(C)n1c3ccccc3c3c4c(c5c6ccccc6n2c5c31)C(=O)NC4 [Midostaurin] (100 nM),95.8%
7,CCNC(=O)c1noc(-c2cc(C(C)C)c(O)cc2O)c1-c1ccc(CN2CCOCC2)cc1 [NVP-AUY922] (10 nM),73.1%
8,O=[N+]([O-])c1ccc2c(c1)S(=O)(=O)C=C2 [Stattic] (500 nM),98.8%
9,O=C(CCCCCCC(=O)Nc1ccccc1)NO [Vorinostat] (100 nM),94.8%

# System: DU-4475
# Experiment: as above
# Settings: incubation time: 72 h
# Summary of the method: as §2
row,SMILES,normalised response
1,Cc1cc(Nc2nc(N[C@@H](C)c3ncc(F)cn3)ncc2Cl)[nH]n1 [AZD1480] (10 nM),96.6%
2,CC1(COc2ccc3c(c2)ncn3-c2ccc3cccc(N4CCC(N)CC4)c3n2)COC1 [Crenolanib] (100 nM),103%
3,Cn1cc(C2=C(c3cn(C4CCN(Cc5ccccn5)CC4)c4ccccc34)C(=O)NC2=O)c2ccccc21 [Enzastaurin] (100 nM),104%
4,Nc1ccn([C@@H]2O[C@H](CO)[C@@H](O)C2(F)F)c(=O)n1 [Gemcitabine] (10 nM),101%
5,C=CCn1c(=O)c2cnc(Nc3ccc(N4CCN(C)CC4)cc3)nc2n1-c1cccc(C(C)(C)O)n1 [MK1775] (100 nM),94.9%
6,CO[C@@H]1[C@H](N(C)C(=O)c2ccccc2)C[C@H]2O[C@]1(C)n1c3ccccc3c3c4c(c5c6ccccc6n2c5c31)C(=O)NC4 [Midostaurin] (100 nM),94.6%
7,CCNC(=O)c1noc(-c2cc(C(C)C)c(O)cc2O)c1-c1ccc(CN2CCOCC2)cc1 [NVP-AUY922] (10 nM),98.7%
8,O=[N+]([O-])c1ccc2c(c1)S(=O)(=O)C=C2 [Stattic] (500 nM),107%
9,O=C(CCCCCCC(=O)Nc1ccccc1)NO [Vorinostat] (100 nM),97.7%

# System: HCC1143
# Experiment: as above
# Settings: incubation time: 72 h
# Summary of the method: as §2
row,SMILES,normalised response
1,Cc1cc(Nc2nc(N[C@@H](C)c3ncc(F)cn3)ncc2Cl)[nH]n1 [AZD1480] (10 nM),106%
2,Nc1ccn([C@@H]2O[C@H](CO)[C@@H](O)C2(F)F)c(=O)n1 [Gemcitabine] (10 nM),102%
3,C=CCn1c(=O)c2cnc(Nc3ccc(N4CCN(C)CC4)cc3)nc2n1-c1cccc(C(C)(C)O)n1 [MK1775] (100 nM),98.6%
4,CO[C@@H]1[C@H](N(C)C(=O)c2ccccc2)C[C@H]2O[C@]1(C)n1c3ccccc3c3c4c(c5c6ccccc6n2c5c31)C(=O)NC4 [Midostaurin] (100 nM),88.6%
5,CCNC(=O)c1noc(-c2cc(C(C)C)c(O)cc2O)c1-c1ccc(CN2CCOCC2)cc1 [NVP-AUY922] (10 nM),119%
6,O=[N+]([O-])c1ccc2c(c1)S(=O)(=O)C=C2 [Stattic] (500 nM),81.2%
7,O=C(CCCCCCC(=O)Nc1ccccc1)NO [Vorinostat] (100 nM),109%

# System: BT-474
# Experiment: as above
# Settings: incubation time: 72 h
# Summary of the method: as §2
row,SMILES,normalised response
1,Cc1cc(Nc2nc(N[C@@H](C)c3ncc(F)cn3)ncc2Cl)[nH]n1 [AZD1480] (10 nM),98.2%
2,CC1(COc2ccc3c(c2)ncn3-c2ccc3cccc(N4CCC(N)CC4)c3n2)COC1 [Crenolanib] (100 nM),103%
3,Cn1cc(C2=C(c3cn(C4CCN(Cc5ccccn5)CC4)c4ccccc34)C(=O)NC2=O)c2ccccc21 [Enzastaurin] (100 nM),101%
4,Nc1ccn([C@@H]2O[C@H](CO)[C@@H](O)C2(F)F)c(=O)n1 [Gemcitabine] (10 nM),97.1%
5,C=CCn1c(=O)c2cnc(Nc3ccc(N4CCN(C)CC4)cc3)nc2n1-c1cccc(C(C)(C)O)n1 [MK1775] (100 nM),95.4%
6,CO[C@@H]1[C@H](N(C)C(=O)c2ccccc2)C[C@H]2O[C@]1(C)n1c3ccccc3c3c4c(c5c6ccccc6n2c5c31)C(=O)NC4 [Midostaurin] (100 nM),96.4%
7,CCNC(=O)c1noc(-c2cc(C(C)C)c(O)cc2O)c1-c1ccc(CN2CCOCC2)cc1 [NVP-AUY922] (10 nM),95.4%
8,O=[N+]([O-])c1ccc2c(c1)S(=O)(=O)C=C2 [Stattic] (500 nM),101%
9,O=C(CCCCCCC(=O)Nc1ccccc1)NO [Vorinostat] (100 nM),71.5%

# System: MCF-10A
# Experiment: as above
# Settings: incubation time: 72 h
# Summary of the method: as §2
row,SMILES,normalised response
1,CC1(COc2ccc3c(c2)ncn3-c2ccc3cccc(N4CCC(N)CC4)c3n2)COC1 [Crenolanib] (100 nM),95.4%
2,Cn1cc(C2=C(c3cn(C4CCN(Cc5ccccn5)CC4)c4ccccc34)C(=O)NC2=O)c2ccccc21 [Enzastaurin] (100 nM),104%
3,Nc1ccn([C@@H]2O[C@H](CO)[C@@H](O)C2(F)F)c(=O)n1 [Gemcitabine] (10 nM),103%
4,C=CCn1c(=O)c2cnc(Nc3ccc(N4CCN(C)CC4)cc3)nc2n1-c1cccc(C(C)(C)O)n1 [MK1775] (100 nM),84.2%
5,CO[C@@H]1[C@H](N(C)C(=O)c2ccccc2)C[C@H]2O[C@]1(C)n1c3ccccc3c3c4c(c5c6ccccc6n2c5c31)C(=O)NC4 [Midostaurin] (100 nM),108%
6,CCNC(=O)c1noc(-c2cc(C(C)C)c(O)cc2O)c1-c1ccc(CN2CCOCC2)cc1 [NVP-AUY922] (10 nM),65%
7,O=[N+]([O-])c1ccc2c(c1)S(=O)(=O)C=C2 [Stattic] (500 nM),106%
8,O=C(CCCCCCC(=O)Nc1ccccc1)NO [Vorinostat] (100 nM),91.4%

# System: HCC1937
# Experiment: as above
# Settings: incubation time: 72 h
# Summary of the method: as §2
row,SMILES,normalised response
1,Cc1cc(Nc2nc(N[C@@H](C)c3ncc(F)cn3)ncc2Cl)[nH]n1 [AZD1480] (10 nM),92.2%
2,CC1(COc2ccc3c(c2)ncn3-c2ccc3cccc(N4CCC(N)CC4)c3n2)COC1 [Crenolanib] (100 nM),80.2%
